{"source": "patent US9164099B2", "about": "“Site-specific labeling of affinity tags in fusion proteins” (LIFE TECHNOLOGIES CORPORATION, priority 2002, dated 2015)", "type_in_all_cases": "binding", "key": {"[1]": {"molecular_target": "T1, poly-histidine affinity tag containing fusion protein (Oligomycin sensitivity conferring protein; OSCP) (Homo sapiens, UniProt P48047)", "T1 construct": "poly-histidine; made in house", "T1 sequence (P48047 24-213)": "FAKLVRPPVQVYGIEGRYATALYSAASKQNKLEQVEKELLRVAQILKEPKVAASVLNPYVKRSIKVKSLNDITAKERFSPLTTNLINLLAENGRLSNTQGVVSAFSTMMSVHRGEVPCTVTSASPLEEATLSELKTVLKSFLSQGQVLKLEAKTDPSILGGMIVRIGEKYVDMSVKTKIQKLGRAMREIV", "assay": "Gel detection of His-tagged OSCP followed by SYPRO Ruby total protein stain (FIG. 2, 3)", "conditions": "staining solution containing nickel ions; compared with SYPRO Ruby total protein stain", "from_the_text": "(§1) FIG. 2: FIG. 2A is a graph showing the detection of a poly-histidine affinity tag containing fusion protein (Oligomycin sensitivity conferring protein; OSCP) labeled with Compound 2 in a staining solution containing nickel ions followed by the detection of (shown in FIG. 2B) total protein using the total protein stain SYPRO® Ruby.\nas §1, with “3:” for “2:”, “3A” for “2A”, “15” for “2”, “3B)” for “2B)”\nFollowing separation of the proteins on a SDS-polyacrylamide gel, the gels were fixed for 20 minutes in 100 ml of 50% ethanol/7% acetic acid and then fixed overnight in 100 ml of fresh fixative solution to ensure complete elimination of SDS. Gels were next washed 3 times for 20 minutes each in deionized water. The gels were then incubated in a staining solution containing 10 μM compound 1 or 2 μM compound 2; 100 μM NiCl2; 50 mM PIPES at pH 6.5 for 45-90 minutes in a total volume of 25 ml. Afterwards, the gels were washed 2 to 4 times for 20 minutes each in deionized water. In order to ensure that the optimal signal was documented, gels were imaged after the second and fourth wash. […]"}, "[2]": {"system": "poly-histidine affinity tag containing fusion protein (urate oxidase)", "assay": "Gel detection of His-tagged urate oxidase with and without nickel ions (FIG. 1)", "conditions": "staining solution without nickel ions compared with nickel ions", "protocol": "FIG. 1B is a graph showing data from the same experiment performed without nickel ions.\nEscherichia coli BL21 DE3 cells were transformed with plasmids containing either the human ATP synthase a subunit, the d subunit (including the leader sequence) or urate oxidase. Both proteins were constructed to have a poly-histidine affinity tag comprising six histidine residues, at the N-terminus and could be induced by isopropyl-beta-D-thiogalactoside (IPTG) addition to the medium. Pre-cultures (10 ml) were grown overnight in bacterial cell culture medium (LB medium) at 37° C. with constant shaking. The next day 100 μl was transferred to 50 ml of fresh LB medium containing 0.1 mg/ml ampicillin and grown until they reached an optical density at 595 nm (OD595) of 0.8. At this point 5 ml of culture was removed and immediately frozen on dry ice. To the rest of the culture 0.8 mM IPTG was added to induce the over-expression of the subunits. Samples (5 ml each) were taken after 10 min, 30 min, 1 h, 1.5 h, 2 h, 2.5 h, and 3 h and again frozen on dry ice. […]\nThe resulting green-fluorescent signal produced by compound 2 was visualized using the 473 nm excitation line of the SHG laser on the Fuji FLA-3000G Fluorescence Image Analyzer (Fuji Photo, Tokyo, Japan) with the 520 nm long pass filter or the 580 nm band pass filter, respectively. […]"}, "[3]": {"system": "oligohistidine-tagged fusion proteins (the a subunit of Escherichia coli ATPase and porin)", "assay": "Detection of poly-histidine affinity tag fusion proteins on a microarray", "conditions": "10 μM compound, 50 mM PIPES pH 6.5", "protocol": "Purified oligohistidine-tagged fusion proteins (the a subunit of Escherichia coli ATPase and porin), as well as control proteins (bovine serum albumin and ovalbumin) are arrayed from a source plate (384 well plate) concentration of 0.468 μg/ml-0.240 mg/ml in water, onto HydroGel coated slides (Perkin Elmer), using the BioChip Arrayer™ (Perkin Elmer). The BioChip Arrayer™ utilizes a PiezoTip™ Dispenser consisting of 4 glass capillaries. Proteins are dispensed from the PiezoTip™ by droplets […] in volume to create array spots ˜200 microns in diameter with a 500 micron horizontal and vertical pitch (pitch=center to center spacing of spots). Proteins are arrayed in duplicate in four rows, with 10 dilution points. The resulting concentration range of the array is 166.5 pg/spot-0.325 pg/spot. For detection of oligohistine-tagged proteins, slides are incubated for 45 minutes on a rotator in 50% ethanol/7% acetic acid and then fixed overnight in fresh fixative solution to ensure complete elimination of SDS. Microarrays are next washed 3 times for 20 minutes each in deionized water. The microarrays are then incubated in a staining solution containing 10 μM Compound 2 or Compound 15; 50 mM PIPES at pH 6.5 for 45-90 minutes. Afterwards, the microarrays are washed 2 to 4 times for 20 minutes each in deionized water. […]"}}, "data": [{"substance": "4,4-difluoro-4-bora-3a,4a-diaza-s-indacene-3,5-bis((6-(propionyl)amino-2-bis(carboxymethyl)amino)hexanoic acid), hexatriethylammonium salt [Compound 2]", "values": [{"measurement": "selectivity for the poly-histidine affinity tag", "setting": "[1]", "result": "selective"}, {"measurement": "sensitivity for the poly-histidine affinity tag", "setting": "[2]", "result": "increased sensitivity"}, {"measurement": "signal on control proteins (bovine serum albumin and ovalbumin)", "setting": "[3]", "result": "little or no signal"}]}]}
